US10195204B2, “Methods of treating hemoglobinopathies” (DUKE UNIVERSITY, priority 2011, dated 2019)
“Also recorded” adds a separate entry of the source. Like-named read-outs stand apart in the source and are kept apart here.

Experiments:
[1] = system: cAMP production in SS RBCs
Method: Whole cell cAMP accumulation was assayed to assess the functional capacity of the RBC β2-ARs to stimulate the production of cAMP. Washed packed RBCs were pre-treated with IBMX to define basal cAMP accumulation, followed by treatment with epinephrine for 1 min or 30 min, or forskolin. Samples were placed on ice, stimulation was halted, and cells fixed by the addition of 12.5 mM EDTA. Cell samples were boiled, clarified by centrifugation and assayed for cAMP content by radioimmunoassay as described previously.^22 Basal cAMP production was subtracted from the total cAMP produced by the cells. The amounts of cAMP were then normalized as fmol cAMP/10^8 RBCs.

ERK1/2 = ERK1/2 from epinephrine-treated SS RBCs, n=4
Method: Treated packed SS RBCs were lysed for 20 min at 4° C. with lysis buffer (10 mM EDTA, 20 mM Tris, 110 mM NaCl, pH 7.5) containing 2 mM PMSF, 1% Triton X-100, phosphatase inhibitor cocktail (Sigma) and protease inhibitor cocktail (Sigma). ERK1/2 was immunoprecipitated with anti-ERK1/2 antibody at 4° C., and immune complexes were obtained using protein A-agarose (Amersham Biosciences Corp., Piscataway, N.J.). ERK1/2 immunocomplex was examined for ERK1/2 activity using myelin basic protein (MBP) at 2 mg/ml (Millipore) as a substrate and ATP as a phosphate donor with equal protein amounts per assay condition. For the negative control, an equal volume of water was substituted for ERK1/2 substrate. […] The reaction mixture was incubated for 20 min at 30° C., followed by protein separation and immunoblotting using anti-phosphoMBP mAb (Millipore).

[2] = system: SS RBC adhesion to TNF-α-activated HUVECs; test: Flow chamber adhesion of SS RBCs to TNF-α-activated HUVECs; type: cell-based, human
Method: Cells were then washed three times with 5 ml PBS with Ca^2+ and Mg^2+. Prior to adhesion assays, washed treated SS RBCs were labeled with PKH 26 red fluorescent cell linker kit (Sigma-Aldrich, St. Louis, Mo.), following the manufacturer's instructions.
Graduated height flow chambers were used to quantify adhesion of RBCs to HUVECs substantially as previously described in detail.^4, 20 In some adhesion studies, slides coated with HUVECs were treated with human recombinant TNF-α at 10 ng/ml for 4 hours. Slides coated with HUVECs treated or not with TNF-α were then washed three times with 20 ml HBSS with 1.26 mM Ca^2+, 0.9 mM Mg^2+ (Gibco, Grand Island, N.Y.) warmed previously to 37° C. and then fit into a variable height flow chamber. The flow chamber was mounted on the stage of an inverted phase contrast microscope (Diaphot, Nikon Inc., Melville, N.Y.) connected to a thermoplate (Tokai Hit Co., Ltd., Japan) set at 37° C. Cells were observed using a video camera (RS photometrics,) attached to the microscope and connected to a Macintosh G4 computer. RBC (3 ml) suspended at 0.2% (vol/vol) in HBSS with Ca^2+, Mg^2+ were infused into the flow chamber and allowed to adhere to the slide for 10 min without flow. Before exposure to flow, a minimum of three fields at each of seven different locations along a line oriented normal to future flow were examined for the total number of fluorescent cells. Fluid flow (HBSS with Ca^2+, Mg^2+) was then started using a calibrated syringe pump. After exposure to flow, the fields were again examined and the number of adherent cells counted. The fraction of adherent cells was presented as (number of cells attached after exposure to flow)/(cells present per field before flow). The wall shear stress was calculated as:
[formula] τw=wall shear stress (dyne/cm^2); Q=volumetric flow rate (cm^3/s); μ is media viscosity, w is the width of the flow channel, and H(x) is the height of the flow chamber as a function of position along the microscope slide. Several investigators have shown that blood flow in small vessels may be continuous, with shear stresses of 1-2 dynes/cm^2, or flow may be intermittent. Our data were obtained using both intermittent and continuous flow conditions.

[3] = system: human SS RBC adhesion to vascular endothelium and vaso-occlusion
Method: All animal experiments were carried out in accordance with protocols approved by the Duke University Animal Care and Use Committee. Female athymic homozygous nude mice (nu-/nu-) were between 8-12 weeks of age (Charles River Laboratories, Wilmington, Mass.).
General anesthesia was achieved by intra-peritoneal injection of 100 mg/kg of ketamine (Abbott Laboratory, Chicago, Ill.) and 10 mg/kg of xylazine (Bayer, Shawnee Mission, Kans.). A double-sided titanium frame window chamber was surgically implanted into the dorsal skin fold under sterile conditions using a laminar flow hood. Surgery involved carefully removing the epidermal and dermal layers of one side of a dorsal skin fold, exposing the blood vessels of the subcutaneous tissue adjacent to the striated muscles of the opposing skin fold, and then securing the two sides of the chamber to the skin using stainless steel screws and sutures. A glass window was placed in the chamber to cover the exposed tissue and secured with a snap ring. Subsequently, animals were kept at 32-34° C. until in vivo studies were performed 3 days post-surgery.
Murine recombinant TNF-α was dissolved in normal saline at a concentration of 0.1 mg/mL and mice bearing dorsal-skin window chamber implants were given a single intraperitoneal (IP) injection of 20 μg/kg TNF-α and control animals received same volume of normal saline. […] Thirty minutes later, labeled human SS RBCs (300 μl hematocrit (Hct) 50% in PBS with Ca^2+ and Mg^2+) were then infused. […] Animals were placed on the stage of an Axoplan microscope (Carl Zeiss, Thornwood, N.Y.); temperature was maintained at 37° C. using a thermostatically controlled heating pad. […] Microcirculatory events and cell adhesion were simultaneously recorded using a Trinitron Color video monitor (PVM-1353 MD, Sony) and JVC videocassette recorder (BR-53784, VCR King, Durham, N.C.) connected to a digital video camera C2400 (Hamamatsu Photonics K.K., Japan). Arterioles were distinguished from venules based on: 1) observation of divergent flow as opposed to convergent flow; 2) birefringent appearance of vessel walls using transillumination, which is characteristic of arteriolar vascular smooth muscle; and 3) relatively straight vessel trajectory without evidence of tortuosity. Cell adherence was quantitated by considering cells attached to the vessel walls and immobile for 1 minute. The percentage of the length of vessels with diameters≤25 μm or >25 μm, occupied by SS RBCs was quantified as: % venular length occupied by SS RBCs=length of vessel wall with adherent cells/total length of the vessel segments analyzed×100.

[4] = system: human SS RBC adhesion in inflamed venules and vaso-occlusion; test: Intravital microscopy in TNF-α-treated nude mice infused with human SS RBCs treated ex vivo with MEK inhibitor; details: for percentage of venular length occupied by treated SS RBCs: compared to sham
From the text: For some in vivo adhesion studies, packed SS RBCs were fluorescently labeled with the dye Dil (Molecular Probes Inc., Eugene, Oreg.), following the manufacturer's instructions. […] Cell morphology was checked by microscopy.

[5] = system: PMN adhesion to non-activated HUVECs; test: Adhesion to HUVECs of PMNs co-incubated with epinephrine-stimulated SS RBCs; type: cell-based, human; details: SS RBCs pre-incubated with inhibitor for 1 hour, then 20 nM epinephrine 1 min
Method: The cells were then washed prior to admixture with fluorescently-labeled native polymorphonuclear cells (PMNs) obtained from healthy donors at a RBC:PMN ratio of 10:1. After co-incubation for 30 minutes at 37° C., cells mixtures were assayed for their ability to adhere to non-activated HUVECs. […] Downregulation of RBC adhesion receptor activity by targeting ERK may not only decrease SS RBC adhesion to the endothelium but also reduce RBC-stimulated leukocyte activation.

[6] = 2 mg/kg U0126 in 0.4% DMSO i.v. 30 min prior to RBC infusion
[7] = SS RBCs treated ex vivo with 10 μM inhibitor for 1 hour, n=5

| SMILES | intracellular cAMP ([1]; epinephrine 1 min, about 50% of samples (n=19)) | cAMP levels ([1]; epinephrine 30 min) | MBP phosphorylation by immunoprecipitated ERK1/2, increase vs sham-treated cells (ERK1/2) [fold] | SS RBCs adherent to TNF-α-activated HUVECs ([2]; SS RBCs pre-treated with 10 μM U0126) [%] | effect on SS RBC adhesion to TNF-α-activated HUVECs ([2]; SS RBCs treated with MEK inhibitor (10 μM; RDEA119 1 and 10 μM)) | vaso-occlusion ([3]; 0.2 mg/kg U0126 in 0.04% DMSO i.v. 30 minutes prior to RBC infusion) | SS RBC adhesion to vascular endothelium [3, 6] | vaso-occlusion [3, 6] | percentage venular length occupied by SS RBCs ([3]; U0126 at 0.2 mg/kg, vessel diameter >25 μm) | percentage venular length occupied by SS RBCs ([3]; U0126 at 0.2 and 2 mg/kg, vessels 25 μm in diameter, vs placebo) | human SS RBC adhesion in inflamed venules [4, 7] | vessel obstruction [4, 7] | percentage of venular length occupied by treated SS RBCs ([4]; vessels 25 μm in diameter) | percentage of venular length occupied by treated SS RBCs ([4]; vessels with a diameter >25 μm) | ability of epinephrine-activated SS RBCs to promote neutrophil (PMN) adhesion to HUVECs [5] |
| --- | --- | --- | --- | --- | --- | --- | --- | --- | --- | --- | --- | --- | --- | --- | --- |
| CNC[C@H](O)c1ccc(O)c(O)c1 [epinephrine] | accumulation of high levels of intracellular cAMP | uniformly declined | 2.1±0.3 |  |  |  |  |  |  |  |  |  |  |  |  |
| N#CC(=C(/N)Sc1ccccc1N)/C(C#N)=C(\N)Sc1ccccc1N [U0126] |  |  |  | 18±5 | significantly reduced; also recorded: significantly inhibited | no apparent vaso-occulsion | very little adhesion | no apparent vaso-occlusion | did not significantly reduce | significant decrease | dramatically decreased | prevented vessel obstruction | significantly decreased | significantly decreased | significantly decreased |
